Literature values, collected in patent US20100055214A1, “METHOD FOR INCREASING BLOOD FLOW TO MAMMALIAN SKELETAL MUSCLE BY ADMINISTERING L-ARGNINE, CRATAEGUS EXTRACT, ARTICHOKE FLAVONOIDS AND GYMNOSTEMMA PENTAPHYLLUM EXTRACT” (H3 FORMULATIONS LTD., priority 2006, published 2010).

Conditions: in vivo

In the case of `N=C(N)NCCC[C@H](N)C(=O)O` [L-arginine], the NO production is given as “increase” and the aerobic exercise capacity is given as “increase aerobic exercise capacity”.
